Data as given in patent publication US11952346B2, “Modulators of mas-related G-protein receptor X2 and related products and methods” (Escient Pharmaceuticals, Inc., priority 2020, dated 2024).

What follows are compounds tested against T1, human MRGPRX2 (Homo sapiens, UniProt Q96LB1) (assay: MRGPRX2 antagonist activity, IP-One HTRF assay in CHO cells expressing human MRGPRX2 versus Cortistatin-14). Details: CHO cells stably expressing human MRGPRX2; versus 0.3 uM Cortistatin-14 agonist; IP-1 HTRF readout; read-out: MRGPR2 Antagonist Activity.
T1 construct: expressed in transfected cells
T1 sequence (Q96LB1 1-330): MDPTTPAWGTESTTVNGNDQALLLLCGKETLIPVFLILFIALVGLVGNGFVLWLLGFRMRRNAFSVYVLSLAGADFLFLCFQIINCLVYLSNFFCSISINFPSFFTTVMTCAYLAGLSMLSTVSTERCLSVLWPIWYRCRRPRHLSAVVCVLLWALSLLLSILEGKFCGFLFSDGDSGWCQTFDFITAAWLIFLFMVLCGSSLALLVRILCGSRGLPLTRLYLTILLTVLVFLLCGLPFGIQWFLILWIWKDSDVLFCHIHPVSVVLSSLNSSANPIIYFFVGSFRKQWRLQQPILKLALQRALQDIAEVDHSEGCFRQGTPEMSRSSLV
Type: cell-based
Experimental: CHO cells stably transfected to express human MRGPRX2 were maintained in an incubator at 37° C. with 5% CO2 and grown in F12 (HAM) media with 10% fetal bovine serum (FBS), 1% Glutamax, 1% penicillin/streptomycin, 800 μg/mL Geneticin (G418), and 300 μg/mL Hygromycin B. Cells were plated in a 384-well assay plate at 20,000 cells per well in 12 μL of Opti-MEM and kept in an incubator overnight. On the day of the assay, compounds solubilized at 10 mM in DMSO were added as a 10-point curve (30 uM final top concentration with 1:3 serial dilutions) using a Tecan D300E digital dispenser. Agonists were diluted in assay buffer (final concentrations of 5.7 mM Tris-HCl, 43 mM NaCl, 50 mM LiCI, pH=8) and 2 μL of the agonist Cortistatin-14 (CPC Scientific, catalog CORT-002) are added to each well. Final concentrations of agonists were […] Cortistatin-14. Final concentrations of DMSO were kept consistent across the plate. Plates were incubated in the dark for 1 hr at 37° C. and then for 1 hr at room temperature. IP-1 standards and HTRF detection reagents were added according to the IP-One—Gq Kit purchased from Cisbio (part number 621PAPEJ) and incubated in the dark for 1 hr at room temperature. The plate was read on a Molecular Devices SpectraMax iD5 plate reader. The HTRF ratio was calculated from the raw data and graphed using GraphPad Prism to calculate an IC50 value for each compound.
The activity ranges are denoted as follows: “+++++” denotes antagonist activity <100 nM; “++++” denotes antagonist activity between 100 and 500 nM; “+++” denotes activity between 501 and 1000 nM; “++” denotes activity between 1001 and 2500 nM; and “+” denotes activity >2500 nM.

`O=C(N[C@H]1CC[C@@H](Nc2cc(C(F)(F)F)nc(C(F)(F)F)c2)CC1)c1ccc(-n2cccn2)cc1` [4-31] and `CC1=NN(c2ccc(C(=O)N[C@H]3CC[C@@H](Nc4cc(C(F)(F)F)nc(C(F)(F)F)c4)CC3)cc2)C(=O)C1` [4-33] fall in the same range of IC50: 100 to 500 nM for the first, 100 to 500 nM for the second.

First: O=C(N[C@H]1CC[C@@H](Nc2cc(C(F)(F)F)nc(C(F)(F)F)c2)CC1)c1ccc(Cl)cc1Cl [4-32]
Second: O=C(N[C@H]1CC[C@@H](Nc2cc(C(F)(F)F)nc(C(F)(F)F)c2)CC1)c1nc2ccccc2[nH]1 [4-35]
The IC50 of the first is lower: 501 to 1000 nM for the first, 1000 to 2500 nM for the second.

First: CN1CCc2c(cccc2C(=O)N[C@H]2CC[C@@H](Nc3cc(C(F)(F)F)nc(C(F)(F)F)c3)CC2)C1 [4-34]
Second: O=C(N[C@H]1CC[C@@H](Nc2cc(C(F)(F)F)nc(C(F)(F)F)c2)CC1)c1ccc2c(c1)CCCC2 [4-42]
The IC50 of the first is higher: 1000 to 2500 nM for the first, 501 to 1000 nM for the second. The second is the more potent here.

`CN1CCN(C(=O)N[C@H]2CC[C@@H](Nc3cc(C(F)(F)F)nc(C(F)(F)F)c3)CC2)CC1` [4-36] and `CN1CCC(C(=O)N[C@H]2CC[C@@H](Nc3cc(C(F)(F)F)nc(C(F)(F)F)c3)CC2)C1` (some centres unmarked) [4-40] fall in the same range of IC50: 1000 to 2500 nM for the first, 1000 to 2500 nM for the second.

First: O=C(N[C@H]1CC[C@@H](Nc2cc(C(F)(F)F)nc(C(F)(F)F)c2)CC1)c1cc2c([nH]1)CCCC2 [4-37]
Second: O=C(N[C@H]1CC[C@@H](Nc2cc(C(F)(F)F)nc(C(F)(F)F)c2)CC1)c1ccc(N2CCCC2)cc1 [4-41]
The IC50 of the first is higher: 501 to 1000 nM for the first, 100 to 500 nM for the second. The second is the more potent here.

`O=C(N[C@H]1CC[C@@H](Nc2cc(C(F)(F)F)nc(C(F)(F)F)c2)CC1)c1ccc(N2CCS(=O)(=O)CC2)cc1` [4-38] and `O=C(N[C@H]1CC[C@@H](Nc2cc(C(F)(F)F)nc(C(F)(F)F)c2)CC1)c1ccc2nccn2c1` [4-39] fall in the same range of IC50: 100 to 500 nM for the first, 100 to 500 nM for the second.

First: COc1ccc(C(=O)N[C@H]2CC[C@@H](Nc3cc(C(F)F)nc(C(F)(F)F)c3)CC2)cc1 [4-43]
Second: O=C(N[C@H]1CC[C@@H](Nc2cc(Cl)nc(C(F)(F)F)c2)CC1)c1ccc(F)cc1 [Example 7, N-(1S,4S)-[4-[[2-chloro-6-(trifluoromethyl)-4-pyridyl]amino]cyclohexyl]-4-fluoro-benzamide]
The IC50 of the first is lower: 100 to 500 nM for the first, 501 to 1000 nM for the second.

`N#Cc1ccc(N[C@H]2CC[C@@H](NC(=O)c3cn[nH]c3C(F)(F)F)CC2)cc1C(F)(F)F` [4-44] and `N#Cc1ccc(N[C@H]2CC[C@@H](NC(=O)c3cn[nH]c3Cl)CC2)cc1C(F)(F)F` [4-45] cannot be ordered by IC50: less than 100 nM for the first, less than 100 nM for the second.

`N#Cc1ccc(N[C@H]2CC[C@@H](NC(=O)c3cn[nH]c3C3CC3)CC2)cc1C(F)(F)F` [4-46] and `N#Cc1ccc(N[C@H]2CC[C@@H](NC(=O)c3cn[nH]c3C#N)CC2)cc1C(F)(F)F` [4-56] cannot be ordered by IC50: less than 100 nM for the first, less than 100 nM for the second.

`CNc1ccc(C(=O)N[C@H]2CC[C@@H](Nc3ccc(C#N)c(C(F)(F)F)c3)CC2)cc1` [4-47] and `CC(=O)Nc1ccc(C(=O)N[C@H]2CC[C@@H](Nc3ccc(C#N)c(C(F)(F)F)c3)CC2)cc1` [4-48] cannot be ordered by IC50: less than 100 nM for the first, less than 100 nM for the second.

`N#Cc1ccc(N[C@H]2CC[C@@H](NC(=O)c3ccc4cn[nH]c4c3)CC2)cc1C(F)(F)F` [4-49] and `N#Cc1ccc(N[C@H]2CC[C@@H](NC(=O)c3ccc4[nH]ncc4c3)CC2)cc1C(F)(F)F` [4-50] cannot be ordered by IC50: less than 100 nM for the first, less than 100 nM for the second.

Compared with `Cc1cn(-c2ccc(C(=O)N[C@H]3CC[C@@H](Nc4ccc(C#N)c(C(F)(F)F)c4)CC3)cc2)cn1` [4-51], `COc1ccc(C(=O)NC2CCC(Nc3ccc(C#N)c(C(F)(F)F)c3)CC2)cc1` (centres unmarked) [Example 4, N-[4-[4-cyano-3-(trifluoromethyl)anilino]cyclohexyl]-4-methoxy-benzamide] is higher in IC50: less than 100 nM for the first, 100 to 500 nM for the second. The first is the more potent here.

`N#Cc1ccc(N[C@H]2CC[C@@H](NC(=O)c3ccc(NCC(F)F)cc3)CC2)cc1C(F)(F)F` [4-53] and `CN(CC(F)F)c1ccc(C(=O)N[C@H]2CC[C@@H](Nc3ccc(C#N)c(C(F)(F)F)c3)CC2)cc1` [4-54] cannot be ordered by IC50: less than 100 nM for the first, less than 100 nM for the second.

`N#Cc1ccc(N[C@H]2CC[C@@H](NC(=O)c3c[nH]c4ncccc34)CC2)cc1C(F)(F)F` [4-57] and `N#Cc1ccc(N[C@H]2CC[C@@H](NC(=O)c3c[nH]c4ccncc34)CC2)cc1C(F)(F)F` [4-63] cannot be ordered by IC50: less than 100 nM for the first, less than 100 nM for the second.

`N#Cc1ccc(N[C@H]2CC[C@@H](NC(=O)c3ccnc4cn[nH]c34)CC2)cc1C(F)(F)F` [4-58] and `N#Cc1ccc(N[C@H]2CC[C@@H](NC(=O)c3ccnc4[nH]ncc34)CC2)cc1C(F)(F)F` [4-59] cannot be ordered by IC50: less than 100 nM for the first, less than 100 nM for the second.

`Cc1cc2c(C(=O)N[C@H]3CC[C@@H](Nc4ccc(C#N)c(C(F)(F)F)c4)CC3)ccnc2[nH]1` [4-60] and `Cn1ccc2c(C(=O)N[C@H]3CC[C@@H](Nc4ccc(C#N)c(C(F)(F)F)c4)CC3)ccnc21` [4-61] cannot be ordered by IC50: less than 100 nM for the first, less than 100 nM for the second.

`Cc1cccc2[nH]cc(C(=O)N[C@H]3CC[C@@H](Nc4ccc(C#N)c(C(F)(F)F)c4)CC3)c12` [4-62] and `N#Cc1ccc(N[C@H]2CC[C@@H](NC(=O)c3c[nH]c4cnccc34)CC2)cc1C(F)(F)F` [4-64] cannot be ordered by IC50: less than 100 nM for the first, less than 100 nM for the second.

`CNC(=O)c1ccc(C(=O)N[C@H]2CC[C@@H](Nc3ccc(C#N)c(C(F)(F)F)c3)CC2)cc1` [4-65] and `CNc1cc(C(=O)N[C@H]2CC[C@@H](Nc3ccc(C#N)c(C(F)(F)F)c3)CC2)ccn1` [4-66] cannot be ordered by IC50: less than 100 nM for the first, less than 100 nM for the second.

`Cc1cc(C(=O)N[C@H]2CC[C@@H](Nc3cc(C)c(C#N)c(C(F)(F)F)c3)CC2)cc(C)n1` [5-1] and `CNc1cc(C(=O)N[C@H]2CC[C@@H](Nc3cc(C)c(C#N)c(C(F)(F)F)c3)CC2)ccn1` [5-4] cannot be ordered by IC50: less than 100 nM for the first, less than 100 nM for the second.

`Cc1cc(N[C@H]2CC[C@@H](NC(=O)c3ccnc(NC(C)C)c3)CC2)cc(C(F)(F)F)c1C#N` [5-2] and `CNc1ccc(C(=O)N[C@H]2CC[C@@H](Nc3cc(C)c(C#N)c(C(F)(F)F)c3)CC2)cc1` [5-3] cannot be ordered by IC50: less than 100 nM for the first, less than 100 nM for the second.

`Cc1cc(N[C@H]2CC[C@@H](NC(=O)c3cnn(CC(F)(F)F)c3)CC2)cc(C(F)(F)F)c1C#N` [5-5] and `CCn1nccc1C(=O)N[C@H]1CC[C@@H](Nc2cc(C)c(C#N)c(C(F)(F)F)c2)CC1` [5-6] cannot be ordered by IC50: less than 100 nM for the first, less than 100 nM for the second.

`Cc1cc(N[C@H]2CC[C@@H](NC(=O)c3ccc(N(C)CC(F)F)cc3)CC2)cc(C(F)(F)F)c1C#N` [5-7] and `Cc1cc(N[C@H]2CC[C@@H](NC(=O)c3ccc(NCC(F)F)cc3)CC2)cc(C(F)(F)F)c1C#N` [5-8] cannot be ordered by IC50: less than 100 nM for the first, less than 100 nM for the second.

`Cc1cc(N[C@H]2CC[C@@H](NC(=O)c3ccc4cncn4c3)CC2)cc(C(F)(F)F)c1C#N` [5-9] and `Cc1cc(N[C@H]2CC[C@@H](NC(=O)c3cn(CC(F)F)nc3C)CC2)cc(C(F)(F)F)c1C#N` [5-10] cannot be ordered by IC50: less than 100 nM for the first, less than 100 nM for the second.

First: O=C(N[C@@H]1CCC[C@H](Nc2cc(C(F)(F)F)nc(C(F)(F)F)c2)C1)c1ccccc1 [Example 2, N-((1R,3S)-3-((2,6-bis(trifluoromethyl)pyridin-4-yl)amino)cyclohexyl)benzamide]
Second: O=C(N[C@H]1CC[C@@H](Nc2cc(C(F)(F)F)cc(C(F)(F)F)c2)CC1)c1ccc(F)cc1 [Example 6, N-((1S,4S)-4-((3,5-bis(trifluoromethyl)phenyl)amino)cyclohexyl)-4-fluorobenzamide]
The IC50 of the first is higher: greater than 2500 nM for the first, 1000 to 2500 nM for the second.

`O=C(N[C@H]1CC[C@@H](Nc2cc(C3CC3)nc(C(F)(F)F)c2)CC1)c1ccc(F)cc1` [Example 8, N-(1S, 4S)-[4-[[2-cyclopropyl-6-(trifluoromethyl)-4-pyridyl]amino]cyclohexyl]-4-fluoro-benzamide] and `O=C(N[C@H]1CC[C@@H](Nc2cc(C(F)(F)F)nc(Nc3ccccc3)n2)CC1)c1ccc(F)cc1` [Example 10, N-(1S,4S)-[4-[[2-anilino-6-(trifluoromethyl)pyrimidin-4-yl]amino}cyclohexyl]-4-fluoro-benzamide] fall in the same range of IC50: 1000 to 2500 nM for the first, 1000 to 2500 nM for the second.

First: COc1ccc(C(=O)N[C@H]2CC[C@@H](Nc3cc(Nc4cccc(C)c4)nc(C(F)(F)F)c3)CC2)cc1 [Example 9, 4-methoxy-N-[4-[[2-(3-methylanilino)-6-(trifluoromethyl)-4-pyridyl]amino]cyclohexyl]benzamide]
Second: CCNc1nc(N[C@H]2CC[C@@H](NC(=O)c3ccc(OC)cc3)CC2)cc(C(F)(F)F)n1 [Example 12, N-(1S,4S)-[4-[[2-(ethylamino)-6-(trifluoromethyl)pyrimidin-4-yl]amino]cyclohexyl]-4-methoxy-benzamide]
The IC50 of the first is lower: 1000 to 2500 nM for the first, greater than 2500 nM for the second. The first is the more potent here.

With `CCN(C)c1nc(N[C@H]2CC[C@@H](NC(=O)c3ccc(N(C)C)cc3)CC2)cc(C(F)(F)F)n1` [Example 11, 4-(dimethylamino)-N-(1S,4S)-[4-[[2-[ethyl(methyl)amino]-6-(trifluoromethyl)pyrimidin-4-yl]amino]cyclohexyl] benzamide] the IC50 was 100 to 500 nM.
